Assay results: US5795861A, “Methods for regulating gastrointestinal motility” (Amylin Pharmaceuticals Inc., priority 1995, dated 1998)

Key:
[1] = plasma AC-0137 levels after IV bolus or infusion (clinical study); assay type: in vivo, human; conditions: after IV bolus injection
Source text: Subjects in each dose group underwent a two period crossover to examine intravenous (IV) bolus versus IV infusion of drug. Each period consisted of a three-day confinement to the study unit. On each occasion, the initial day of confinement was allowed for acclimatization to the study unit. The second and third days constituted an imbedded crossover of placebo versus active medication. […] An imbedded cross-over design for the administration of drug and placebo on Days 2 and 3 of this admission was employed in a manner similar to that used during the first admission. The six subjects assigned to the placebo group received placebo on each of the study days.
On study days, intravenous catheters were inserted at least 30 minutes prior to the start of the study. 15 minutes before dosing, the subjects took their usual insulin dose via subcutaneous injection. […] The infusion rate was designed to administer the assigned amount of drug over the two hour period. Thirty minutes later, the subjects ingested their normal breakfasts.

[2] = solubility and stability compared to human amylin; assay type: physicochemical

CC[C@H](C)[C@H](NC(=O)[C@@H]1CCCN1C(=O)CNC(=O)[C@H](Cc1ccccc1)NC(=O)[C@H](CC(N)=O)NC(=O)[C@H](CC(N)=O)NC(=O)[C@H](CO)NC(=O)[C@H](CO)NC(=O)[C@H](Cc1c[nH]cn1)NC(=O)[C@@H](NC(=O)[C@H](CC(C)C)NC(=O)[C@H](Cc1ccccc1)NC(=O)[C@H](CC(N)=O)NC(=O)[C@H](C)NC(=O)[C@H](CC(C)C)NC(=O)[C@H](CCCNC(=N)N)NC(=O)[C@H](CCC(N)=O)NC(=O)[C@@H](NC(=O)[C@H](C)NC(=O)[C@@H]1CSSC[C@H](NC(=O)[C@@H](N)CCCCN)C(=O)N[C@@H](CC(N)=O)C(=O)N[C@@H]([C@@H](C)O)C(=O)N[C@@H](C)C(=O)N[C@@H]([C@@H](C)O)C(=O)N1)[C@@H](C)O)C(C)C)C(=O)N[C@@H](CC(C)C)C(=O)N1CCC[C@H]1C(=O)N1CCC[C@H]1C(=O)N[C@H](C(=O)N[C@@H](CC(N)=O)C(=O)N[C@H](C(=O)NCC(=O)N[C@@H](CO)C(=O)N[C@@H](CC(N)=O)C(=O)N[C@H](C(=O)N[C@@H](Cc1ccc(O)cc1)C(N)=O)[C@@H](C)O)C(C)C)[C@@H](C)O [AC-0137, ^25,28,29 Pro-h-amylin]
disappearance of drug from the plasma compartment [1]: apparent first-order kinetics
solubility and stability characteristics [2]: more desirable solubility and stability characteristics
